Values of other authors as cited in patent US5908934A, “Process for the preparation of chiral ketone intermediates useful for the preparation of flavopiridol and analogs” (Bristol-Myers Squibb Company, priority 1997, dated 1999).

System: apoptosis
Details: combination with known cytotoxic agents; J. Cell Sci., 108, 2897 (1995)

Cn1cnc2c(NCc3ccccc3)nc(NCCO)nc21 [olomucine]
synergy with known cytotoxic agents in inducing apoptosis: act synergistically with known cytotoxic agents in inducing apoptosis
